# From the NIST ThermoML archive (doi:10.1016/j.jct.2005.10.018)
# ± gives the expanded uncertainty stated by the source.
# Details: 298.15 K; 101.33 kPa; Liquid; Vibrating tube method
row,Compound,mass density
1,C=C(C)[C@H]1CC=C(C)CC1 [(R)-1-methyl-4-(1-methylethenyl)cyclohexene],837.31 ± 0.85 kg/m3
2,CCO [ethanol],785.24 ± 0.16 kg/m3
3,CC1=CC[C@H]2C[C@@H]1C2(C)C [(S)-2-pinene],853.88 ± 0.3 kg/m3
4,"C=C1CC[C@H]2C[C@@H]1C2(C)C [(1S,5S)-6,6-dimethyl-2-methylenebicyclo[3.1.1]heptane]",866.84 ± 0.3 kg/m3
